The results in this text go back to ChEMBL document CHEMBL5727940, “Substituted piperazines as selective HDAC1,2 inhibitors” (2020).

For this data set, the target named is hERG (KCNH2) (Homo sapiens, UniProt Q12809). Nature of the data set: hERG inhibition assays: For hERG inhibition assays, the cells used were HEK293 cells stably transfected with hERG (cell line obtained from Cytocentrics Inc. 3463 Magic Drive San Antonio, Tex. 78229). Composition of External Solution: NaCl, 137 mM; KCl, 4 mM; MgCl2, 1.0 mM; CaCl2, 1.8 mM; HEPES 10 mM; Dextrose 11 mM; Adjusted to a pH of 7.4 with NaOH. Composition of Internal Solution: KCl, 130.0 mM. To be noted: pH 7.4. On the technique in general: Block of hERG is tested as a sign of cardiac risk.
Sequence of hERG (KCNH2) (Q12809 whole entry): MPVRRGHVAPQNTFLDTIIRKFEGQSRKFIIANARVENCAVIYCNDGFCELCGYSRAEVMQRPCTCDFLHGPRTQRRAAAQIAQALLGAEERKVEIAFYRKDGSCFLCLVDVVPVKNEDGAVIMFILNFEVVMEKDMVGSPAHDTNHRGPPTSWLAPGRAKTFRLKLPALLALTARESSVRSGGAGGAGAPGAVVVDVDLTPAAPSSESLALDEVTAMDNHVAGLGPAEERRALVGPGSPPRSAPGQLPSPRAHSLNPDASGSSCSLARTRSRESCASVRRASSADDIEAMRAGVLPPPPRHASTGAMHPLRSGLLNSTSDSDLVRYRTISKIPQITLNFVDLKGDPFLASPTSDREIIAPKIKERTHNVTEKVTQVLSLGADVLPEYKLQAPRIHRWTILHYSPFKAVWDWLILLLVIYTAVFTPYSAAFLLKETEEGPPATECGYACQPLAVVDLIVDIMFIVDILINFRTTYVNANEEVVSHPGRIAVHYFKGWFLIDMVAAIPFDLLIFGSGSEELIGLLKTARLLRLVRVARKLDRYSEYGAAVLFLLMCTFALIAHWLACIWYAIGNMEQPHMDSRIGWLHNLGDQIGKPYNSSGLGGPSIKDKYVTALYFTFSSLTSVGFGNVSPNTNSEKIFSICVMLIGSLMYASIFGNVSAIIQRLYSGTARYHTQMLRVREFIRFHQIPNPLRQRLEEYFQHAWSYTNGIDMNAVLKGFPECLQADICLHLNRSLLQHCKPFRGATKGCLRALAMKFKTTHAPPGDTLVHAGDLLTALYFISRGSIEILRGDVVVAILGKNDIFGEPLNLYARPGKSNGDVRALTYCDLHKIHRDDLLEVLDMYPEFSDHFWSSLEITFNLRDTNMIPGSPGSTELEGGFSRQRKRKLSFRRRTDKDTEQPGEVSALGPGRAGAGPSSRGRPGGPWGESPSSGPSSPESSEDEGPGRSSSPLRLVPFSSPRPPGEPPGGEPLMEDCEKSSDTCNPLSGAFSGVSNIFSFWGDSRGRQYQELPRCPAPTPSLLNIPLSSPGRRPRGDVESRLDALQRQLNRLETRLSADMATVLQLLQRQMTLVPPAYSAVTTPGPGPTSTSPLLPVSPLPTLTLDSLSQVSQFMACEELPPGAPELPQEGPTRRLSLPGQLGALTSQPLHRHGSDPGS

Turning to `Nc1ccc(-c2cccs2)cc1NC(=O)c1ncc(N2CCNCC2)s1`, the half-inhibitory concentration (IC50) (commonly the concentration needed to halve the response being measured) is 3.6 µM.
